Test results as given in US4782058A, “1,3,4,6,7,11b-Hexahydro-6-phenyl-2H-pyrazino-(2,1-a)isoquinolines, for anti-histamine or anti-depression treatment” (Pennwalt Corporation, priority 1987, dated 1988).
Structures can show the parent of a compound that is named as a salt.

Columns and labels:
[1] = tested on: tetrabenazine-induced ptosis; experiment: inhibition of tetrabenazine-induced ptosis in mice; format: in vivo; conditions: Mus musculus, po; male CF-1 mice, orally administered 15 min before i.v. tetrabenazine; ptosis rated 30-150 min; read-out: lowest active dose (LAD)
Method: A particularly useful compound with respect to antidepressant activity is the title compound of Example 1 (i.e., the cis-diastereoisomeric form of the compound of formula I in which R1 is methyl, R2 is methoxy, and R3 is hydrogen). That compound was tested for antidepressant activity by measuring its ability to inhibit tetrabenazine-induced ptosis in mice.
Male CF-1 mice weighing 19-32 grams were housed for a minimum of 5 days under a 12 hour light/dark (6 am/6 pm) schedule at 70°-74° F. and relative humidity of 30-50%. Food and water were available ad libitum until the time of administration of test compounds. Mice in groups of ten were orally administered (via gastric intubation) either the control solution (distilled water, 10 ml/kg) or the test compound. The test compound was either dissolved in distilled water or suspended in distilled water containing a drop of polyoxyethylene 20 sorbitan monooleate, sold under the trademark, Tween 80. After fifteen minutes, a dose of 10 ml/kg of a solution of tetrabenazine (as its methane sulfonate salt) in distilled water (4 mg/ml) was administered by intravenous injection. The degree of palpebral closure (ptosis) was determined 30, 60, 90, 120, and 150 minutes after administration of the tetrabenazine solution. […]

[2] = target: T1, histamine H1 -receptors (Rattus norvegicus, UniProt P31390); experiment: inhibition of binding of 3H-pyrilamine to homogenated rat cerebral tissue; conditions: 3H-pyrilamine binding, read-out: IC50 (50% inhibitory concentration)
T1 construct: homogenated rat cerebral tissue; from tissue; host or cells: rat cerebral tissue, homogenate
Method: That compound was assayed for anti-histamine activity by measuring its ability to inhibit the binding of 3H-pyrilamine to homogenated rat cerebral tissue. (3H-Pyrilamine is a radioligand that is used to characterize histamine H1 -receptors in brain tissue.) Assay conditions were essentially those of V. T. Tran et al, Proc. Nat'l. Acad. Sci. (USA) 75, p. 6290-6294 (1978).

T1 sequence (P31390 whole entry): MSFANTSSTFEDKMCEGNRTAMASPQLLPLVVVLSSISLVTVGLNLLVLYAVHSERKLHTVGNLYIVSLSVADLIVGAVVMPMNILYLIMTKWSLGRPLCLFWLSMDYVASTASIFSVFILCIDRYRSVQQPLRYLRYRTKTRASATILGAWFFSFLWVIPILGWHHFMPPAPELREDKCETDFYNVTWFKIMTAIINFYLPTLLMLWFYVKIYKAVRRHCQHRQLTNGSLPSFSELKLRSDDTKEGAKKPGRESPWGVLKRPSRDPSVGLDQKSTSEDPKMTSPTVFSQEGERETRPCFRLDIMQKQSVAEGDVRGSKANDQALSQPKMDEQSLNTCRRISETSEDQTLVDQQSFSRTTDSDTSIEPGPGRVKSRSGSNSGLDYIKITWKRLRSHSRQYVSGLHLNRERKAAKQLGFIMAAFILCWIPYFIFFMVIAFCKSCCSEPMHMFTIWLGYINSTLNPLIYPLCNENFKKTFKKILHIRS

| IC50 [2] | SMILES | minimal effective dose [1] |
| --- | --- | --- |
| – | COc1ccc2c(c1)C[C@@H](c1ccccc1)N1CCN(C)C[C@@H]21 (relative stereo) [Example 1, cis-1,3,4,6,7,11b-hexahydro-9-methoxy-2-methyl-6-phenyl-2H-pyrazino[2,1-a]isoquinoline dihyrochloride] | 20 mg/kg |
| 250 nM | CN1CCN2[C@@H](c3ccccc3)Cc3cc(O)ccc3[C@@H]2C1 (relative stereo) [Example 2, cis-1,3,4,6,7,11b-hexahydro-9-hydroxy-2-methyl-6-phenyl-2H-pyrazino[2,1-a]isoquinoline dihydrobromide] | – |
